Reference: patent publication US20260226048A1, “MULTI-CYCLIC IRAK AND FLT3 INHIBITING COMPOUNDS AND USES THEREOF” (CHILDREN'S HOSPITAL MEDICAL CENTER, priority 2023, published 2026)
pKd: −log10 of the molar value.

Columns and labels:
FLT3 K663Q = molecular target: T1, FLT3 K663Q (Homo sapiens, UniProt P36888, K663Q); experiment: DiscoverX KINOMEscan competition binding assay, FLT3 K663Q; details: 11-point 3-fold dilution
T1 construct: purchased DiscoverX (KINOMEscan); host or cells: E. coli BL21-derived host (T7 phage) or HEK-293
T1 sequence (P36888 27-993 K663Q): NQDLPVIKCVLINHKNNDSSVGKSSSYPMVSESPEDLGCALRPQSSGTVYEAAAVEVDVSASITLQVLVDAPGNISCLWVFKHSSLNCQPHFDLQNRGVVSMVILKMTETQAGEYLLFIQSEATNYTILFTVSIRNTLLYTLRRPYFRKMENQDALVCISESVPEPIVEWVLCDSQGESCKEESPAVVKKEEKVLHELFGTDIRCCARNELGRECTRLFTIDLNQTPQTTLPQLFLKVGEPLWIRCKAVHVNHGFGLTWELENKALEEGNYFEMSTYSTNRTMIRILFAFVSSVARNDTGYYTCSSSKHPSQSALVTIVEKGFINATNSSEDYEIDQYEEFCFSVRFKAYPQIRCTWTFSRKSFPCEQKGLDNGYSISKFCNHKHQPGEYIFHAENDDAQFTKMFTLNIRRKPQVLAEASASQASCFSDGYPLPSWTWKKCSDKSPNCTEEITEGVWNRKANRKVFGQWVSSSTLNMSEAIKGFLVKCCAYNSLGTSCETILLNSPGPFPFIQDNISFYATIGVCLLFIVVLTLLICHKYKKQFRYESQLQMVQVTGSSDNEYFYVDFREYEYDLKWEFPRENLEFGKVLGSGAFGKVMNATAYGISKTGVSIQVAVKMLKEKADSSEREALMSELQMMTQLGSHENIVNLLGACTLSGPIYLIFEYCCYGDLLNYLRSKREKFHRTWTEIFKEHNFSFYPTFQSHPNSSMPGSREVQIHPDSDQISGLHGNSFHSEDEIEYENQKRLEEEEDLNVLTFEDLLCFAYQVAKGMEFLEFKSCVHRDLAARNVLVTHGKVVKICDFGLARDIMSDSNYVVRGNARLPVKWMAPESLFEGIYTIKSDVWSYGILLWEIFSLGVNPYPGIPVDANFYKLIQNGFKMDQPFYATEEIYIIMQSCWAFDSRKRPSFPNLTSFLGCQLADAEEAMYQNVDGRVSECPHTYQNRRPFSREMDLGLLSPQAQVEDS
From the text: (§1) […]. […] As a result, the data report thermodynamic interaction affinities (Kd values), rather than IC50 values that are dependent on ATP concentrations. The assay uses a DNA-tagged version of the protein kinase, and an immobilized ligand bound to a solid support. Compounds that directly or indirectly prevent kinase binding to the immobilized ligand reduce the amount of kinase captured on the solid support, which is detected using an ultra-sensitive qPCR method. Affinity constants reported from the assay have been reported to be independent of the immobilized ligand used that is coupled to the solid support (See supplemental information in Fabian, M. A. et. al., (2005) Nat. Biotechnol. 23, 329-336; Wodicka, L. M. et. al., (2010) Chem. Biol. 17, 1241-1249.)
(§2) Kinase-tagged T7 phage strains were prepared in an E. coli host derived from the BL21 strain. E. coli were grown to log-phase and infected with T7 phage and incubated with shaking at 32° C. until lysis. The lysates were centrifuged and filtered to remove cell debris. The remaining kinases were produced in HEK-293 cells and subsequently tagged with DNA for qPCR detection. Streptavidin-coated magnetic beads were treated with biotinylated small molecule ligands for 30 minutes at room temperature to generate affinity resins for kinase assays. The liganded beads were blocked with excess biotin and washed with blocking buffer (SeaBlock (Pierce), 1% BSA, 0.05% Tween 20, 1 mM DTT) to remove unbound ligand and to reduce non-specific binding. […] Test compounds were prepared as 111× stocks in 100% DMSO. Kds were determined using an 11-point 3-fold compound dilution series with three DMSO control points. All compounds for Kd measurements are distributed by acoustic transfer (non-contact dispensing) in 100% DMSO. The compounds were then diluted directly into the assays such that the final concentration of DMSO was 0.9%. All reactions were performed in polypropylene 384-well plates. Each was a final volume of 0.02 mL. […] The kinase concentration in the eluates was measured by qPCR.
(§3) Binding constants (Kds) were calculated with a standard dose-response curve using the Hill equation. The Hill Slope was set to −1. Curves were fitted using a non-linear least square fit with the Levenberg-Marquardt algorithm.

FLT3 Autoinh. = molecular target: T2, FLT3 Autoinh. (Homo sapiens, UniProt P36888); experiment: DiscoverX KINOMEscan competition binding assay, FLT3 Autoinh.; details: 11-point 3-fold dilution
T2 construct: purchased DiscoverX (KINOMEscan); host or cells: E. coli BL21-derived host (T7 phage) or HEK-293
T2 sequence (P36888 564-993 limits assumed): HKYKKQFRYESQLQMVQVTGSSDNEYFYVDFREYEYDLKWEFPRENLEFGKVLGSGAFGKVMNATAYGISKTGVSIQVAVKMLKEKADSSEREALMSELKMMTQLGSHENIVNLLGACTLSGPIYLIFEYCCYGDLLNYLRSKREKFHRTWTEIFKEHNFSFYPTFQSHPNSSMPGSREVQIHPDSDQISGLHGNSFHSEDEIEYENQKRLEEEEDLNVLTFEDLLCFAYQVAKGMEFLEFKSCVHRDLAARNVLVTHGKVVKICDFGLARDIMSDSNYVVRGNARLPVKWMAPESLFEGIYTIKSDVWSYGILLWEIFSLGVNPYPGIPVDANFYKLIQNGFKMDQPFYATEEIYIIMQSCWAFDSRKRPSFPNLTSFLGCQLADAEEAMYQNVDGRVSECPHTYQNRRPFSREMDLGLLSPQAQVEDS
From the text: as §1, §2, §3

`COc1cc2ncc(-c3nc(N[C@H]4CNCC[C@@H]4F)ncc3F)n2nc1C1CC1` [Compound 1a, 4-(6-cyclopropyl-7-methoxyimidazo[1,2-b]pyridazin-3-yl)-5-fluoro-N-((3S,4S)-4-fluoropiperidin-3-yl)pyrimidin-2-amine] showed a pKd (FLT3 K663Q) of 9.57 and a pKd (FLT3 Autoinh.) of 8.66.
Compound `FC(F)COc1cc2ncc(-c3ccnc(N[C@H]4CNCC[C@@H]4F)n3)n2nc1C1CC1` [Compound 4a, 4-(6-cyclopropyl-7-(2,2-difluoroethoxy)imidazo[1,2-b]pyridazin-3-yl)-N-((3 S,4S)-4-fluoropiperidin-3-yl)pyrimidin-2-amine] has a pKd (FLT3 K663Q) of 8.64 and a pKd (FLT3 Autoinh.) of 7.68.
With `COc1cc2ncc(-c3nc(N[C@H]4CNCC[C@@H]4F)ncc3F)n2nc1C(C)(C)O` [Compound 45a, 2-(3-(5-fluoro-2-(((3S,4S)-4-fluoropiperidin-3-yl)amino)pyrimidin-4-yl)-7-methoxyimidazo[1,2-b]pyridazin-6-yl)propan-2-ol] the pKd (FLT3 K663Q) was 8.46 and the pKd (FLT3 Autoinh.) was 7.96.
For `CC(C)(O)c1ccc2ncc(-c3nc(N[C@H]4CNCC[C@@H]4F)ncc3F)n2c1` [Compound 46a, 2-(3-(5-fluoro-2-(((3S,4S)-4-fluoropiperidin-3-yl)amino)pyrimidin-4-yl)imidazo[1,2-a]pyridin-6-yl)propan-2-ol], the pKd (FLT3 K663Q) was 8.43 and the pKd (FLT3 Autoinh.) was 8.15.
`COc1cc2ncc(-c3nc(N[C@H]4CNCC[C@@H]4F)ncc3F)n2nc1C1COC1` [Compound 92a, 5-fluoro-N-((3S,4S)-4-fluoropiperidin-3-yl)-4-(7-methoxy-6-(oxetan-3-yl)imidazo[1,2-b]pyridazin-3-yl)pyrimidin-2-amine] gave a pKd (FLT3 K663Q) of 9.31 and a pKd (FLT3 Autoinh.) of 8.48.
For `CC(C)(O)c1cn2c(-c3nc(N[C@H]4CNCC[C@@H]4F)ncc3F)cnc2cn1` [Compound 100a, 2-(3-(5-fluoro-2-(((3S,4S)-4-fluoropiperidin-3-yl)amino)pyrimidin-4-yl)imidazo[1,2-a]pyrazin-6-yl)propan-2-ol], the pKd (FLT3 K663Q) was 7.52 and the pKd (FLT3 Autoinh.) was 7.24.
`COc1cc2ncc(-c3nc(N[C@H]4CNCC[C@@H]4F)ncc3F)n2nc1N1CCCS1(=O)=O` [Compound 112a, 2-(3-(5-fluoro-2-(((3S,4S)-4-fluoropiperidin-3-yl)amino)pyrimidin-4-yl)-7-methoxyimidazo[1,2-b]pyridazin-6-yl)isothiazolidine 1,1-dioxide] was tested, and the pKd (FLT3 K663Q) was 9.51 and the pKd (FLT3 Autoinh.) was 8.57.
